Measurements taken from patent publication EP2815749A1, “Solid form of 4-amino-2-(2,6-dioxopiperidine-3-yl)isoindoline-1,3-dione having specified X-ray diffraction pattern” (IP Gesellschaft für Management mbH, priority 2013, dated 2014).
Converted amounts (≈) assume the structure as drawn. Like-named read-outs stand apart in the source and are kept apart here.

Assay: Approximate solubility of pomalidomide at 50°C in 96 solvent compositions (LC)
Type: physicochemical
Settings: organic solvent or mixture, thermodynamic from solid
Experimental: Pomalidomide Solid Form Preparations: Preparation of solid form of pomalidomide was conducted by equilibrating pomalidomide in 96 solvent compositions at 50°C and subjected to four conditions: slurry, evaporation, cooling, and precipitation. […] Solvents were then added, as binary gradients consisting of main solvent and co-solvent, to give a total of 150 µl, in each of the 96 vials (see Table 6 for the exact composition of each vial). […] For each of the evaporation, precipitation, and cooling experiments, approximately 8 mg of a solid sample of pomalidomide (e.g., Form A) was delivered to each position of the plate. Solvents were added to the master plate, as binary gradients consisting of main solvent and co-solvent, to give a total volume of 800 µT in each of the 96 vials (see Table 7 for the exact composition of each vial). The master plate, containing pomalidomide and solvents, was then equilibrated by stirring for 2 hours at 50°C. Upon completion of the equilibration cycle, the supernatant was aspirated into a four-tipped needle assembly and transferred to a sealed parallel filtration assembly. The mixtures were forced through the filtration assembly using positive pressure and the filtrates were collected in an array of glass vials. The filtered solutions were subsequently aspirated into the four-tipped assembly and aliquots were dispensed to an array of glass vials for subsequent LC analysis to determine approximate concentrations of pomalidomide in each solvent composition at the beginning of the experiments (Table 8). Both the four-tipped needle assembly and filtration assembly were maintained at the equilibration temperature of 50°C throughout the entire transfer process.
The results correspond to the solvent systems described in Table 7, equilibrated at 50°C for 2 hours. […] The approximate concentrations were determined by LC.

In the case of `Nc1cccc2c1C(=O)N(C1CCC(=O)NC1=O)C2=O` (stereo not drawn) [Pomalidomide, 4-amino-2-(2,6-dioxopiperidine-3-yl)isoindoline-1,3-dione], the solubility at 2 h (binary solvent composition (main solvent and co-solvent), 50 °C, solvent system D12 of Table 7, read-out: Approximate Measured Solubility) is reported as 670 µg/mL (≈ 2450 µM), the solubility at 2 h (binary solvent mixture (main solvent and co-solvent), 50 °C, solvent system D9 of Table 7, read-out: Approximate Measured Solubility) is reported as 1630 µg/mL (≈ 5970 µM) and the solubility at 2 h (binary solvent mixture (main solvent and co-solvent), 50 °C, solvent system E1 of Table 7, read-out: Approximate Measured Solubility) is reported as 1600 µg/mL (≈ 5860 µM). The solubility at 2 h (binary solvent mixture (main solvent and co-solvent), 50 °C, solvent system E2 of Table 7, read-out: Approximate Measured Solubility) was 690 µg/mL (≈ 2530 µM), the solubility at 2 h (binary solvent mixture (main solvent and co-solvent), 50 °C, solvent system E3 of Table 7, read-out: Approximate Measured Solubility) was 320 µg/mL (≈ 1170 µM) and the solubility at 2 h (binary solvent mixture (main solvent and co-solvent), 50 °C, solvent system E4 of Table 7, read-out: Approximate Measured Solubility) was 130 µg/mL (≈ 476 µM). It also gave a solubility at 2 h (binary solvent mixture (main solvent and co-solvent), 50 °C, solvent system E5 of Table 7, read-out: Approximate Measured Solubility) of 20 µg/mL (≈ 73.2 µM), a solubility at 2 h (binary solvent mixture (main solvent and co-solvent), 50 °C, solvent system E7 of Table 7, read-out: Approximate Measured Solubility) of 20 µg/mL (≈ 73.2 µM) and a solubility at 2 h (binary solvent mixture (main solvent and co-solvent), 50 °C, solvent system E8 of Table 7, read-out: Approximate Measured Solubility) of 730 µg/mL (≈ 2670 µM). The solubility at 2 h (binary solvent mixture (main solvent and co-solvent), 50 °C, solvent system E9 of Table 7, read-out: Approximate Measured Solubility) was 1630 µg/mL (≈ 5970 µM), the solubility at 2 h (binary solvent mixture (main solvent and co-solvent), 50 °C, solvent system E10 of Table 7, read-out: Approximate Measured Solubility) was 2310 µg/mL (≈ 8450 µM) and the solubility at 2 h (binary solvent mixture (main solvent and co-solvent), 50 °C, solvent system E11 of Table 7, read-out: Approximate Measured Solubility) was 2480 µg/mL (≈ 9080 µM). For the same compound, the solubility at 2 h (binary solvent mixture (main solvent and co-solvent), 50 °C, solvent system E12 of Table 7, read-out: Approximate Measured Solubility) was 950 µg/mL (≈ 3480 µM), the solubility at 2 h (binary solvent mixture (main solvent and co-solvent), 50 °C, solvent system F1 of Table 7, read-out: Approximate Measured Solubility) was 100 µg/mL (≈ 366 µM) and the solubility at 2 h (binary solvent mixture (main solvent and co-solvent), 50 °C, solvent system F2 of Table 7, read-out: Approximate Measured Solubility) was 60 µg/mL (≈ 220 µM). For the same compound, the solubility at 2 h (binary solvent mixture (main solvent and co-solvent), 50 °C, solvent system F3 of Table 7, read-out: Approximate Measured Solubility) was 30 µg/mL (≈ 110 µM), the solubility at 2 h (binary solvent mixture (main solvent and co-solvent), 50 °C, solvent system F4 of Table 7, read-out: Approximate Measured Solubility) was 10 µg/mL (≈ 36.6 µM) and the solubility at 2 h (binary solvent mixture (main solvent and co-solvent), 50 °C, solvent system F7 of Table 7, read-out: Approximate Measured Solubility) was 40 µg/mL (≈ 146 µM). For the same compound, the solubility at 2 h (binary solvent mixture (main solvent and co-solvent), 50 °C, solvent system F8 of Table 7, read-out: Approximate Measured Solubility) was 40 µg/mL (≈ 146 µM), the solubility at 2 h (binary solvent mixture (main solvent and co-solvent), 50 °C, solvent system F9 of Table 7, read-out: Approximate Measured Solubility) was 130 µg/mL (≈ 476 µM) and the solubility at 2 h (binary solvent mixture (main solvent and co-solvent), 50 °C, solvent system F12 of Table 7, read-out: Approximate Measured Solubility) was 550 µg/mL (≈ 2010 µM). The solubility at 2 h (binary solvent mixture (main solvent and co-solvent), 50 °C, solvent system G1 of Table 7, read-out: Approximate Measured Solubility) was 2690 µg/mL (≈ 9840 µM), the solubility at 2 h (binary solvent mixture (main solvent and co-solvent), 50 °C, solvent system G2 of Table 7, read-out: Approximate Measured Solubility) was 1650 µg/mL (≈ 6040 µM) and the solubility at 2 h (binary solvent mixture (main solvent and co-solvent), 50 °C, solvent system G3 of Table 7, read-out: Approximate Measured Solubility) was 700 µg/mL (≈ 2560 µM). The solubility at 2 h (binary solvent mixture (main solvent and co-solvent), 50 °C, solvent system G4 of Table 7, read-out: Approximate Measured Solubility) was 230 µg/mL (≈ 842 µM), the solubility at 2 h (binary solvent mixture (main solvent and co-solvent), 50 °C, solvent system G5 of Table 7, read-out: Approximate Measured Solubility) was 60 µg/mL (≈ 220 µM) and the solubility at 2 h (binary solvent mixture (main solvent and co-solvent), 50 °C, solvent system G7 of Table 7, read-out: Approximate Measured Solubility) was 30 µg/mL (≈ 110 µM). The solubility at 2 h (binary solvent mixture (main solvent and co-solvent), 50 °C, solvent system G8 of Table 7, read-out: Approximate Measured Solubility) was 410 µg/mL (≈ 1500 µM), the solubility at 2 h (binary solvent mixture (main solvent and co-solvent), 50 °C, solvent system G9 of Table 7, read-out: Approximate Measured Solubility) was 650 µg/mL (≈ 2380 µM) and the solubility at 2 h (binary solvent mixture (main solvent and co-solvent), 50 °C, solvent system G10 of Table 7, read-out: Approximate Measured Solubility) was 2310 µg/mL (≈ 8450 µM). For the same compound, the solubility at 2 h (binary solvent mixture (main solvent and co-solvent), 50 °C, solvent system G11 of Table 7, read-out: Approximate Measured Solubility) was 5180 µg/mL (≈ 19000 µM), the solubility at 2 h (binary solvent mixture (main solvent and co-solvent), 50 °C, solvent system G12 of Table 7, read-out: Approximate Measured Solubility) was 5990 µg/mL (≈ 21900 µM) and the solubility at 2 h (binary solvent mixture (main solvent and co-solvent), 50 °C, solvent system H1 of Table 7, read-out: Approximate Measured Solubility) was 380 µg/mL (≈ 1390 µM). For the same compound, the solubility at 2 h (binary solvent mixture (main solvent and co-solvent), 50 °C, solvent system H2 of Table 7, read-out: Approximate Measured Solubility) was 240 µg/mL (≈ 878 µM), the solubility at 2 h (binary solvent mixture (main solvent and co-solvent), 50 °C, solvent system H3 of Table 7, read-out: Approximate Measured Solubility) was 110 µg/mL (≈ 403 µM) and the solubility at 2 h (binary solvent mixture (main solvent and co-solvent), 50 °C, solvent system H4 of Table 7, read-out: Approximate Measured Solubility) was 40 µg/mL (≈ 146 µM). For the same compound, the solubility at 2 h (binary solvent mixture (main solvent and co-solvent), 50 °C, solvent system H7 of Table 7, read-out: Approximate Measured Solubility) was 50 µg/mL (≈ 183 µM), the solubility at 2 h (binary solvent mixture (main solvent and co-solvent), 50 °C, solvent system H8 of Table 7, read-out: Approximate Measured Solubility) was 400 µg/mL (≈ 1460 µM) and the solubility at 2 h (binary solvent mixture (main solvent and co-solvent), 50 °C, solvent system H10 of Table 7, read-out: Approximate Measured Solubility) was 1500 µg/mL (≈ 5490 µM). For the same compound, the solubility at 2 h (binary solvent mixture (main solvent and co-solvent), 50 °C, solvent system H11 of Table 7, read-out: Approximate Measured Solubility) was 1960 µg/mL (≈ 7170 µM), the solubility at 2 h (binary solvent mixture (main solvent and co-solvent), 50 °C, solvent system H12 of Table 7, read-out: Approximate Measured Solubility) was 2060 µg/mL (≈ 7540 µM) and the solubility at 2 h (solvent system H9 of Table 7, read-out: Approximate Measured Solubility) was 860 µg/mL (≈ 3150 µM). For the same compound, the solubility at 2 h (solvent system A1 of Table 7, 50 °C, solvent system A1 of Table 7, read-out: Approximate Measured Solubility) was 2240 µg/mL (≈ 8200 µM), the solubility at 2 h (solvent system A2 of Table 7, 50 °C, solvent system A2 of Table 7, read-out: Approximate Measured Solubility) was 8190 µg/mL (≈ 30000 µM) and the solubility at 2 h (solvent system A3 of Table 7, 50 °C, solvent system A3 of Table 7, read-out: Approximate Measured Solubility) was 2430 µg/mL (≈ 8890 µM). The solubility at 2 h (solvent system A10 of Table 7, 50 °C, solvent system A10 of Table 7, read-out: Approximate Measured Solubility) was 1830 µg/mL (≈ 6700 µM), the solubility at 2 h (solvent system A11 of Table 7, 50 °C, solvent system A11 of Table 7, read-out: Approximate Measured Solubility) was 290 µg/mL (≈ 1060 µM) and the solubility at 2 h (solvent system A12 of Table 7, 50 °C, solvent system A12 of Table 7, read-out: Approximate Measured Solubility) was 80 µg/mL (≈ 293 µM).
